These results are taken from US20230183750A1, “HDR ENHANCERS” (OXFORD GENETICS LIMITED, priority 2020, published 2023).

One series deals with HEK reporter cell line. Briefly: cell-viability assay using alamar blue reagent. The note with it: 72 hours. The format is cell-based, human. The method, then: To investigate the effect of this library on HDR efficiency and to identify novel molecules which would increase the HDR mediated gene editing efficiency, first we carried out a cell-viability assay using the HEK reporter cell line and alamar blue reagent. The experiment was performed to rule out any toxicity associated with the small molecule library. Briefly, 3 different concentration of inhibitors (0.1 μM, 1 μM and 10 μM) were added in the cells in a 96 well plate format and plates were incubated for 72 hours. After 72 hours, the media were replaced with alamar blue containing media and the plates were further incubated for 3 hours and then read on a Fluorstar omega plate reader. The table gives the results obtained with the subsequently-selected inhibitors, together with a range of other potential inhibitors.
In general terms: The colour change of resazurin is a common sign of viable cells or microbes.

For series [1], the system named is HEK293 reporter cell line. Nature of the series: CRISPR/Cas9-based HDR assay (wtCas9 RNP, ssOligo donor, EGFP positive cells by FACS). The class given is cell-based, human. As to conditions: for HDR efficiency, single small molecule (FIG. 4): Example 4, first set of experiments, compared to no compound; for HDR efficiency in the initial screen with wtCas9: fold change compared to Cas9 alone, ≥20% increase (fold change ≥1.2) = positive influencer; for optimal concentration selected for further experiments: from the HDR dose dependency experiment; for dose dependency of HDR efficiency (FIG. 3): three concentrations (low, medium, high) per inhibitor; for concentration with the highest HDR efficiency: tested at 5, 10, 20 μM. As for the experimental part: More specifically, an HDR assay using a HEK reporter cell line containing truncated EGFP may be used. These cells may be transfected with a transfection complex containing the CRISPR endonuclease and a donor sequence. Cas9 RNPs may be prepared by following the manufacturers' guidelines. The transfection complex may be prepared by adding Cas9 RNP or Cas9 nickase RNP, along with ssOligo donor and lipofectamine 2000 in Optimem. Reagents should be mixed well and incubated for 20 mins. After 20 mins, 50 μl of transfection complex (at an optimal concentration—see the Examples herein) may be transferred in a 96 well plate and 50 μl HEK293 reporter cell line suspension (9×10^5 cells/ml) added followed by 50 μl of cell culture medium containing appropriate concentration(s) of inhibitor(s). Cells may be incubated at 37° C. in a CO2 incubator for 24 hours and then inhibitor-containing media should be replaced with fresh media without inhibitor. Cells are then further incubated for 48 hours. After 48 hours, cells may be trypsinized and resuspended in PBS containing 10% FBS. Samples may be run on FACS and the percentage of EGFP in the population measured. Presence of EGFP directly correlates with HDR efficiency.
To investigate whether a knock-in truncated in HEK293 reporter cell line could be corrected by homology dependent repair, a CRISPR/Cas9-based HDR assay was used. We used ssODN as a donor template to correct the EGFP sequence and to restore functionality as ssODNs are known to be more efficient compared to the double-stranded donor for HDR based DNA repair. Briefly, cells were transfected with a wtCas9 ribonucleoprotein complex along with an oligo donor for restoring EGFP functionality. Cells were analysed by FACS 72 hours post-transfection (FIGS. 2A and 2B).
To identify the small molecules which would increases the HDR efficiency, we carried out experiments using the engineered HEK293 reporter cell line, ss-donor and wtCas9 in the presence of the inhibitors identified in Example 2. Briefly, in vitro reconstituted wtCas9 RNP with gRNA-X1 was transfected into the cells along with ssOligo donor (50 nM) in presence of the inhibitors. Inhibitor containing media was replaced with fresh media after 24 hours and cells were further incubated for 48 hours. After 48 hours cells were trypsinized and resuspended in 10% FBS containing PBS and analysed by FACS.
To understand whether increase in HDR is related to dose response, we carried out the HDR assay using three different concentrations of selected inhibitors as shown in the table below.
To investigate whether HDR efficiency would increase further by using the top hit small molecule combinations, we performed experiments using small molecule combinations for wtCas9. These combinations were selected using Design of Experiment (DoE) software. These combination experiments were carried out in 2 sets: the first set was performed in the absence of NU7441 (a known HDR enhancer); and the second set was performed in the presence of NU7441. […] In the second set of experiments, in the presence of NU7441, further increases (˜2fold) in HDR efficiency were observed compared to no NU7441 (FIG. 4). […]
In general terms: In flow cytometry, cells or beads pass a laser one at a time.

Molecules are shown by their SMILES.

For `O=c1cc(N2CCOCC2)oc2c(-c3cccc4c3sc3ccccc34)cccc12` [NU7441], the “% survival” value with HEK reporter cell line (0.1 μM inhibitor) was 103.58 ± 4.44%. In addition, the “% survival” value in the series on HEK reporter cell line (1 μM inhibitor) is 88.88 ± 3.55%. Further, in the series on HEK reporter cell line (10 μM inhibitor), the “% survival” value came to 22.95 ± 0.98%. Also, in series [1] (wtCas9), the “HDR efficiency, single small molecule (FIG. 4)” value is “increase in HDR efficiency”; the “optimal concentration selected for further experiments” value (shortened to “optimal concentration selected”) is 1 µM; the “dose dependency of HDR efficiency (FIG. 3)” value (shortened to “dose dependency”) is “highest HDR efficiency”. In addition, the “further increase in HDR efficiency in the presence of NU7441 compared to no NU7441 (FIG. 4)” value in series [1] (Example 4, second set of experiments, wtCas9) is listed as about 2 fold. In addition, the “HDR efficiency at high concentration (FIG. 3)” value in series [1] (concentration of 2 μM, wtCas9) is recorded as “moderate increases”. Besides, the “HDR efficiency in the initial screen with wtCas9” value (from here on “HDR efficiency … with wtCas9”) in series [1] was “increase the HDR efficiency”.
For the compound `O=C1NC(=O)/C(=C/c2cccc(C(F)(F)F)c2)S1` [SMI-4a], the “% survival” value in the series with HEK reporter cell line (0.1 μM inhibitor) is on record as 105.2 ± 0.07%. Besides, the “% survival” value with HEK reporter cell line (1 μM inhibitor) is on record as 103.18 ± 5.38%. Moreover, the “% survival” value with HEK reporter cell line (10 μM inhibitor) was 99.85 ± 1.22%. In series [1] (wtCas9), the “HDR efficiency, single small molecule (FIG. 4)” value is listed as “increase in HDR efficiency”; the “optimal concentration selected” value is 20 µM; the “concentration with the highest HDR efficiency” value worked out at 20 µM; the “dose dependency” value is listed as “dose-dependent increases in HDR efficiency”. Further, the “HDR efficiency … with wtCas9” value in series [1] is “increase the HDR efficiency”.
Take `CCS(=O)(=O)c1cccc(-c2cc(C(=O)NC3CCN(C)CC3)c(C)c3[nH]c4ncc(C)cc4c23)c1` [TAK-901]: the entries for the “% survival” value in the series with HEK reporter cell line (0.1 μM inhibitor), with HEK reporter cell line (1 μM inhibitor) and in the series on HEK reporter cell line (10 μM inhibitor) were 88.9 ± 1.18%, 36.24 ± 0.88% and 5.65 ± 0.08%, respectively.
`O=C(Nc1c[nH]nc1-c1nc2cc(CN3CCOCC3)ccc2[nH]1)NC1CC1` [AT9283]: the “% survival” value amounted to 81.49 ± 3.59% in the series on HEK reporter cell line (0.1 μM inhibitor), 69.69 ± 1.2% in the series with HEK reporter cell line (1 μM inhibitor) and 7.1 ± 0.06% in the series on HEK reporter cell line (10 μM inhibitor). Moreover, the “HDR efficiency, single small molecule (FIG. 4)” value in series [1] (wtCas9) is “increase in HDR efficiency”. For the same compound, the “HDR efficiency at high concentration (FIG. 3)” value in series [1] (concentration of 0.2 μM, wtCas9) is reported as “moderated decreases in HDR efficiency”. The “HDR efficiency … with wtCas9” value in series [1] is on record as “increase the HDR efficiency”. Besides, the “optimal concentration selected” value in series [1] (wtCas9) came to 0.05 µM.
With `O=c1cc(N2CCOCC2)oc2c1ccc1ccccc12` [NU7026], the “% survival” value in the series with HEK reporter cell line (0.1 μM inhibitor) worked out at 100.08 ± 4.01%; in the series on HEK reporter cell line (1 μM inhibitor), 100.14 ± 4.13%; with HEK reporter cell line (10 μM inhibitor) it was 83.17 ± 1.44%. Besides, the “HDR efficiency … with wtCas9” value in series [1] was “increase the HDR efficiency”.
For `Cc1cc(CN2CCN(c3c(Br)cnc4nc(-c5ccc(N6CCN(C)CC6)cc5)[nH]c34)CC2)no1` [CCT137690], the results for the “% survival” value in the series with HEK reporter cell line (0.1 μM inhibitor), with HEK reporter cell line (1 μM inhibitor) and in the series on HEK reporter cell line (10 μM inhibitor) were 105.48 ± 3.94%, 63.37 ± 2.12% and −0.08 ± 0.1%, respectively.
For `O=C([C@H](Cc1cccc(C(F)(F)F)c1)NS(=O)(=O)c1cc(F)c2c(c1)CCNC2)N1CCCC1` [S-PFI-2], in the series on HEK reporter cell line (0.1 μM inhibitor), the “% survival” value turned out to be 99.98 ± 3.25%. The “% survival” value in the series with HEK reporter cell line (1 μM inhibitor) turned out to be 115.11 ± 2.47%. Also, the “% survival” value in the series on HEK reporter cell line (10 μM inhibitor) came out at 94.25 ± 8.54%. Moreover, in series [1] (wtCas9), the “HDR efficiency, single small molecule (FIG. 4)” value is “increase in HDR efficiency”; the “optimal concentration selected” value was determined as 20 µM; the “concentration with the highest HDR efficiency” value came to 20 µM; the “dose dependency” value was “dose-dependent increases in HDR efficiency”. In series [1], the “HDR efficiency … with wtCas9” value is listed as “increase the HDR efficiency”.
